{"source": "paper PMC7618036", "about": "“An oral heme oxygenase inhibitor targets immunosuppressive perivascular macrophages in preclinical models of cancer” (Science translational medicine, 2025)", "system": "CD8^+ T-cells in MMTV-PyMT tumors", "assay": "Flow cytometry of the TME of MMTV-PyMT tumors after 36 h treatment", "format": "in vivo, mouse", "conditions": "single-agent therapy", "protocol": "At 36 h post treatment initiation of treatment mice were sacrificed and tumors were harvested and analyzed. (A) Schematic representing the dosing strategy. (B) The fold change of tumor growth over 36 h post initiation of treatment. (C-G) Tumors were enzyme-digested to release single cells which were analyzed for their live (7AAD^-) stromal cell composition using flow cytometry (n=5 tumors per group) (C) and CD8^+ T-cells (D). Gating strategy (left panel) and quantitation of CD8^+ T-cell subsets based on CD62L and CD44 expressions (right panel; TCM; T central memory cells, TEM; T effector memory cells, Teff; T effectors cells) (E), and the ability of the tumoral CD8^+ T-cells to secrete IFNγ post ex vivo exposure to PMA/ionomycin treatment (F). […] Scale bar is 100 µm and white arrows indicate infiltrating CD8^+ T-cells. […] Image in panel (A) was created using BioRender. Bar charts show the mean, error bars SD, and the dots show individual data points from individual tumors and mice. Gemc.; gemcitabine. * P<0.05, ** P<0.01, *** P<0.001.\nMN-MCA1 sarcoma cells were orthotopically implanted into syngeneic C57Bl/6 mice for tumors. A total of 2.5 x 10^5 cells in 100 μL RPMI were injected subcutaneously into female mice. […] When tumors became palpable, volumes were measured every 2-4 days using digital caliper measurements of the long (L) and short (S) dimensions of the tumor. […]"}
{"smiles": "O=c1[nH]cc(F)c(=O)[nH]1", "note": "[5-FU, 5-fluorouracil]", "values": [{"measurement": "abundance of CD8^+ T-cells in the TME", "value": "increase in the abundance of CD8^+ T-cells"}]}
